The text below walks through data of US7807411B2, “Genetically encoded fluorescent coumarin amino acids” (The Scripps Research Institute, priority 2006, dated 2010).

The nature of series [1]: Absorption and emission spectra of the coumarin amino acid. In kind it is physicochemical. The following applies: phenolate form, pH 7.4, 100 mM sodium phosphate buffer. Here is the method:
FIG. 2 provides absorption and emission spectra of L-(7-hydroxycoumarin-4-yl)ethylglycine. Both spectra were recorded at pH 7.4, 100 mM sodium phosphate buffer. At this pH, L-(7-hydroxycoumarin-4-yl)ethylglycine is present in both phenol and phenolate forms (in approximately a 2:1 ratio). The phenolate form has an extinction coefficient of 17000 at […] and a quantum yield of 0.63.

Series [2] is described as follows: pH sensitivity of the absorption spectrum (pKa determination). In kind it is physicochemical. The note with it: 60 μM in 100 mM sodium phosphate buffer, calculated from absorbance at 360 nm versus pH. Here is the method: FIG. 7 provides an absorption spectrum of 60 μM coumarinyl amino acid L-(7-hydroxycoumarin-4-yl)ethylglycine in 100 mM sodium phosphate buffer.
The absorption spectrum of 60 μM coumarinyl amino acid 7-hydroxycoumarin-ethylglycine was measured in 100 mM sodium phosphate buffer. The absorbance of 360 nm increased while pH increased.

For series [3], the system named is amber codon in the chloramphenicol acetyl transferase (CAT) gene. In words: Chloramphenicol survival of synthetase clones (amber suppression in CAT gene). The class given is cell-based, E. coli. The note with it: 60 hours at 37° C., GMML-agar. How it is done: Subsequently, this library was subjected to rounds of both positive and negative selections. In the positive selection, cell survival is dependent on the suppression of an amber codon introduced at a permissive site in the chloramphenicol acetyl transferase (CAT) gene when cells co-transformed with pBK-lib and MjtRNA^TyrCUA are grown in the presence of 1 mM unnatural amino acid (UAA) and chloramphenicol (Xie and Schultz, Methods (2005) 36:227-238). Positively selected clones are then transformed into cells containing MjtRNA^TyrCUA and a gene encoding the toxic barnase protein with three amber mutations introduced at permissive sites. These cells are grown in the absence of UAA to remove any clones that utilize endogenous amino acids (negative selection). These positive and negative selection are described in detail below.
Positive Selection—E. coli DH10B harboring the pREP(2)/YC plasmid was used as the host strain for the positive selection. Cells were transformed with the pBK-lib5 library, recovered in SOC for 1 hour, washed twice with glycerol minimal media with leucine (GMML) before plating on GMML-agar plates supplemented with kanamycin, chloramphenicol, tetracycline and 7-hydroxycoumarin-ethylglycine at 50 μg/mL, 60 μg/mL, 15 μg/mL and 1 mM respectively. […]

By pKa is commonly meant the pH at which an ionisable group is half protonated. Regarding `N[C@@H](CCc1cc(=O)oc2cc(O)ccc12)C(=O)O` [L-(7-hydroxycoumarin-4-yl)ethylglycine], the extinction coefficient in series [1] (at 360 nm) stood at 17000 M⁻¹ cm⁻¹. In series [1], this molecule gave a quantum yield of 0.63. For the same molecule, in series [2], the pKa is listed as 7.8.

B1: CouRS-D8 (protein)
chain: MDEFEMIKRNTSEIISEEELREVLKKDEKSAEIGFEPSGKIHLGHYLQIKKMIDLQNAGFDIIIHLGDLGAYLNQKGELDEIRKIGDYNKKVFEAMGLKAKYVYGSEYHLDKDYTLNVYRLALKTTLKRARRSMELIAREDENPKVAEVIYPIMQVNGIHYGGVDVAVGGMEQRKIHMLARELLPKKVVCIHNPVLTGLDGEGKMSSSKGNFIAVDDSPEEIRAKIKKAYCPAGVVEGNPIMEIAKYFLEYPLTIKRPEKFGGDLTVNSYEELESLFKNKELHPMDLKNAVAEELIKILEPIRKRL
modifications: L-(7-hydroxycoumarin-4-yl) ethylglycine aminoacyl-tRNA synthetase
For the molecule B1, the “chloramphenicol concentration at which the clone survives” value in series [3] (in the absence of 7-hydroxycoumarin-ethylglycine) turned out to be 20 µg/mL; in series [3] (in the presence of 1 mM 7-hydroxycoumarin-ethylglycine) it was 100 µg/mL.
